Measured values published in the Kinase Knowledgebase extract (Sharma et al. 2016).

Molecular target: PIK3CG (human) (UniProt P48736)
Assay: Assessment of PIK3CG Kinase Activity

PIK3CG (human), sequence (P48736 whole entry, looked up): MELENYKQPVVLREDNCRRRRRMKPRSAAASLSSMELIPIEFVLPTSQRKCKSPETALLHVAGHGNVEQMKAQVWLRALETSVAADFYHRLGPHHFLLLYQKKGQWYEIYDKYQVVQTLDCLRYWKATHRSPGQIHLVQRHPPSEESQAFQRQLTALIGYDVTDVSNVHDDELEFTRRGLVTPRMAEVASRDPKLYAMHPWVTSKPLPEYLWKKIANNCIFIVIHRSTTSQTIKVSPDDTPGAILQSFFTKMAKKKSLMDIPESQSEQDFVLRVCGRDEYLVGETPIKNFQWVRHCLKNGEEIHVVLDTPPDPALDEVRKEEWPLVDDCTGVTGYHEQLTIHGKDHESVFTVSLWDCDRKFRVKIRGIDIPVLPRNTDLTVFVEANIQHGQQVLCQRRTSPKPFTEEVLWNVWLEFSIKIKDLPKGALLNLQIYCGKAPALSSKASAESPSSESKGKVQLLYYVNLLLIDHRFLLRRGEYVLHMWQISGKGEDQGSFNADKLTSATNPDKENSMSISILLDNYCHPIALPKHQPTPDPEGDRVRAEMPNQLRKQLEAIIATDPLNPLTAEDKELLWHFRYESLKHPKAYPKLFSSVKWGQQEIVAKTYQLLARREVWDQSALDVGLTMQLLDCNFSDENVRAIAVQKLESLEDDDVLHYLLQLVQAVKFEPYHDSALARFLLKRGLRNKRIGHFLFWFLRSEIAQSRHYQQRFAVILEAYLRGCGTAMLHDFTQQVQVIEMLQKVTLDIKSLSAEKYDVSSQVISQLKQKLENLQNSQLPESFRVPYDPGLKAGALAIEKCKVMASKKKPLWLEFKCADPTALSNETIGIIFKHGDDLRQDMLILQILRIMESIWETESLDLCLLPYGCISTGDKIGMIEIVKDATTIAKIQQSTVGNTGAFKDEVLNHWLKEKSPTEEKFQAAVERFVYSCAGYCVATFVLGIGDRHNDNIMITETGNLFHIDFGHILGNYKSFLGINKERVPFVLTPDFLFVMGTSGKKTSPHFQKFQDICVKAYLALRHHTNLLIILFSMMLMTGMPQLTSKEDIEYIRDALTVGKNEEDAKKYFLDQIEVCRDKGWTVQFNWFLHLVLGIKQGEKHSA

`COCC(=O)N[C@H]1CCN(C(=O)Nc2nc3c(s2)-c2nc(-c4ccccc4Cl)ncc2CC3)C1` gave an IC50 of under 800 nM.
Compound `COc1ccc(OC)c(CNC(=O)Nc2nc3c(s2)-c2nc(-c4ccccc4Cl)ncc2CC3)c1` has an IC50 of under 800 nM.
With `NC(=O)Nc1nc2c(s1)-c1nc(-c3ccccc3Br)ncc1CC2` the IC50 was under 800 nM.
In the case of `O=C(Nc1nc2c(s1)-c1nc(-c3ccccc3Cl)ncc1CC2)N1CC[C@@H](NC(=O)N2CCCC2)C1`, the IC50 is reported as under 800 nM.
`N#Cc1cccc(CNC(=O)Nc2nc3c(s2)-c2nc(-c4ccccc4Cl)ncc2CC3)c1` was tested, and the IC50 was under 800 nM.
`O=C(NCc1cc(C2CC2)n[nH]1)Nc1nc2c(s1)-c1nc(-c3ccccc3Cl)ncc1CC2` showed an IC50 of under 800 nM.
For `CC(C)(C)OC(=O)N1CCCCC1CNC(=O)Nc1nc2c(s1)-c1nc(-c3ccccc3Cl)ncc1CC2` (stereo unspecified), the IC50 was under 800 nM.
Work on `O=C(NCCc1ccncc1)Nc1nc2c(s1)-c1nc(-c3ccccc3Cl)ncc1CC2` yielded an IC50 of under 800 nM.
`CNC(=O)CCNC(=O)Nc1nc2c(s1)-c1nc(-c3ccccc3Cl)ncc1CC2` gave an IC50 of under 800 nM.
With `O=C(Nc1ccccc1)Nc1nc2c(s1)-c1nc(-c3ccccc3Cl)ncc1CC2` the IC50 was under 800 nM.
`O=C(Nc1nc2c(s1)-c1nc(-c3ccccc3Cl)ncc1CC2)N1CCCC(c2ccccc2O)C1` (stereo unspecified) gave an IC50 of under 800 nM.
Compound `CC(C)(C)c1ncc2c(n1)-c1sc(NC(N)=O)nc1CC2` has an IC50 of under 800 nM.
`CCCn1ccc(CNC(=O)Nc2nc3c(s2)-c2nc(-c4ccccc4Cl)ncc2CC3)n1` showed an IC50 of under 800 nM.
In the case of `CC(C)CN(C)C(=O)c1cccc(CNC(=O)Nc2nc3c(s2)-c2nc(-c4ccccc4Cl)ncc2CC3)c1`, the IC50 is reported as under 800 nM.
`CC(=O)Nc1cccc(CNC(=O)Nc2nc3c(s2)-c2nc(-c4ccccc4Cl)ncc2CC3)c1` was tested, and the IC50 was under 800 nM.
Compound `CN(C)CCCCNC(=O)Nc1nc2c(s1)-c1nc(-c3ccccc3Cl)ncc1CC2` has an IC50 of under 800 nM.
Work on `O=C(NCCc1nc(C2CC2)no1)Nc1nc2c(s1)-c1nc(-c3ccccc3Cl)ncc1CC2` yielded an IC50 of under 800 nM.
`CNC(=O)c1cccc(CNC(=O)Nc2nc3c(s2)-c2nc(-c4ccccc4Cl)ncc2CC3)c1` showed an IC50 of under 800 nM.
`O=C(Nc1nc2c(s1)-c1nc(-c3ccccc3Cl)ncc1CC2)N1CC[C@@H](NC(=O)N2CCCCC2)C1` was tested, and the IC50 was under 800 nM.
With `COCCN(C)C(=O)Nc1nc2c(s1)-c1nc(-c3ccccc3Cl)ncc1CC2` the IC50 was under 800 nM.
Work on `O=C(NCC1CCCCC1)Nc1nc2c(s1)-c1nc(-c3ccccc3Cl)ncc1CC2` yielded an IC50 of under 800 nM.
Work on `CCN1CCC[C@H]1CNC(=O)Nc1nc2c(s1)-c1nc(-c3ccccc3Cl)ncc1CC2` yielded an IC50 of under 800 nM.
`CN1CCC(O)C2(CCCN(C(=O)Nc3nc4c(s3)-c3nc(-c5ccccc5Cl)ncc3CC4)C2)C1` (stereo unspecified) showed an IC50 of under 800 nM.
In the case of `O=C(Nc1nc2c(s1)-c1nc(-c3ccccc3Cl)ncc1CC2)N1CCCC(c2nc3ccccc3[nH]2)C1` (stereo unspecified), the IC50 is reported as under 800 nM.
Work on `O=C(NCCc1cccc(N2CCNC2=O)c1)Nc1nc2c(s1)-c1nc(-c3ccccc3Cl)ncc1CC2` yielded an IC50 of under 800 nM.
For `O=C(NCCn1ccnc1)Nc1nc2c(s1)-c1nc(-c3ccccc3Cl)ncc1CC2`, the IC50 was under 800 nM.
`NC(=O)Nc1nc2c(s1)-c1nc(-c3ccccc3C(F)(F)F)ncc1CC2` gave an IC50 of under 800 nM.
Compound `O=C(Nc1nc2c(s1)-c1nc(-c3ccccc3Cl)ncc1CC2)N1CCC(NC(=O)C(F)(F)F)C1` (stereo unspecified) has an IC50 of under 800 nM.
`O=C(NCc1cccc(C(=O)N2CCOCC2)c1)Nc1nc2c(s1)-c1nc(-c3ccccc3Cl)ncc1CC2` gave an IC50 of under 800 nM.
For `CC(C)(C)CC(=O)N[C@H]1CCN(C(=O)Nc2nc3c(s2)-c2nc(-c4ccccc4Cl)ncc2CC3)C1`, the IC50 was under 800 nM.
For `O=C(Nc1nc2c(s1)-c1nc(-c3ccccc3Cl)ncc1CC2)N1CCC(c2c[nH]c3ccccc23)CC1`, the IC50 was under 800 nM.
Work on `CC(C)(C)CNC(=O)CCNC(=O)Nc1nc2c(s1)-c1nc(-c3ccccc3Cl)ncc1CC2` yielded an IC50 of under 800 nM.
Work on `O=C(NCc1cccc(N2CCOCC2)c1)Nc1nc2c(s1)-c1nc(-c3ccccc3Cl)ncc1CC2` yielded an IC50 of under 800 nM.
For `COCCC(=O)N[C@H]1CCN(C(=O)Nc2nc3c(s2)-c2nc(-c4ccccc4Cl)ncc2CC3)C1`, the IC50 was under 800 nM.
`O=C1CC[C@H](NC(=O)Nc2nc3c(s2)-c2nc(-c4ccccc4Cl)ncc2CC3)CN1` showed an IC50 of under 800 nM.
Work on `CCN1CCC2(CCN(C(=O)Nc3nc4c(s3)-c3nc(-c5ccccc5Cl)ncc3CC4)C2)C1` (stereo unspecified) yielded an IC50 of under 800 nM.
For `O=C(NCCC(=O)N1CCCCC1)Nc1nc2c(s1)-c1nc(-c3ccccc3Cl)ncc1CC2`, the IC50 was under 800 nM.
`CC(C)c1nnc(CCNC(=O)Nc2nc3c(s2)-c2nc(-c4ccccc4F)ncc2CC3)o1` was tested, and the IC50 was under 800 nM.
In the case of `CC(C)C(=O)Nc1cccc(CNC(=O)Nc2nc3c(s2)-c2nc(-c4ccccc4Cl)ncc2CC3)c1`, the IC50 is reported as under 800 nM.
Compound `CCc1nnc(CCNC(=O)Nc2nc3c(s2)-c2nc(-c4ccccc4C(F)(F)F)ncc2CC3)o1` has an IC50 of under 800 nM.
Work on `O=C(Nc1nc2c(s1)-c1nc(-c3ccccc3Cl)ncc1CC2)N1CCOCC1` yielded an IC50 of under 800 nM.
`O=C(NCc1ccccc1)Nc1nc2c(s1)-c1nc(-c3ccccc3Cl)ncc1CC2` gave an IC50 of under 800 nM.
`CC(C)c1cccc(CNC(=O)Nc2nc3c(s2)-c2nc(-c4ccccc4Cl)ncc2CC3)c1` showed an IC50 of under 800 nM.
Work on `CCN(CC)CCNC(=O)Nc1nc2c(s1)-c1nc(-c3ccccc3Cl)ncc1CC2` yielded an IC50 of under 800 nM.
`O=C(NCc1cccc(C(F)(F)F)c1)Nc1nc2c(s1)-c1nc(-c3ccccc3Cl)ncc1CC2` gave an IC50 of under 800 nM.
Compound `Cn1ccnc1CNC(=O)Nc1nc2c(s1)-c1nc(-c3ccccc3Cl)ncc1CC2` has an IC50 of under 800 nM.
`COc1cccc(CCNC(=O)Nc2nc3c(s2)-c2nc(-c4ccccc4Cl)ncc2CC3)c1` gave an IC50 of under 800 nM.
Compound `O=C(Nc1nc2c(s1)-c1nc(-c3ccccc3Cl)ncc1CC2)N1CCC2(CC1)C(=O)NCN2c1ccccc1` has an IC50 of under 800 nM.
Work on `CC(C)c1noc(CCNC(=O)Nc2nc3c(s2)-c2nc(-c4ccccc4Br)ncc2CC3)n1` yielded an IC50 of under 800 nM.
Compound `CC1(C)NC(=O)N(Cc2ccc(CNC(=O)Nc3nc4c(s3)-c3nc(-c5ccccc5Cl)ncc3CC4)cc2)C1=O` has an IC50 of under 800 nM.
`CC(=O)N(C)c1cccc(CNC(=O)Nc2nc3c(s2)-c2nc(-c4ccccc4Cl)ncc2CC3)c1` gave an IC50 of under 800 nM.
For `O=C(NCc1cccs1)Nc1nc2c(s1)-c1nc(-c3ccccc3Cl)ncc1CC2`, the IC50 was under 800 nM.
`CCn1cc(CNC(=O)Nc2nc3c(s2)-c2nc(-c4ccccc4Br)ncc2CC3)cn1` was tested, and the IC50 was under 800 nM.
Compound `CC(C)(C)OC(=O)NCC1CCCN1C(=O)Nc1nc2c(s1)-c1nc(-c3ccccc3Cl)ncc1CC2` (stereo unspecified) has an IC50 of under 800 nM.
`Cc1nc2ccccc2n1CC(C)(C)NC(=O)Nc1nc2c(s1)-c1nc(-c3ccccc3Cl)ncc1CC2` gave an IC50 of under 800 nM.
In the case of `CCc1nnc(CCNC(=O)Nc2nc3c(s2)-c2nc(-c4ccccc4Br)ncc2CC3)o1`, the IC50 is reported as under 800 nM.
With `O=C(NCc1cccc(N2CCNC2=O)c1)Nc1nc2c(s1)-c1nc(-c3ccccc3Cl)ncc1CC2` the IC50 was under 800 nM.
Compound `Cn1nc(CNC(=O)Nc2nc3c(s2)-c2nc(-c4ccccc4Cl)ncc2CC3)cc1O` has an IC50 of under 800 nM.
`CC(C)CNC(=O)Nc1nc2c(s1)-c1nc(-c3ccccc3Cl)ncc1CC2` showed an IC50 of under 800 nM.
With `O=C(NCc1cccc(NC(=O)N2CCOCC2)c1)Nc1nc2c(s1)-c1nc(-c3ccccc3Cl)ncc1CC2` the IC50 was under 800 nM.
For `CN1CCN(C(=O)Nc2nc3c(s2)-c2nc(-c4ccccc4Cl)ncc2CC3)CC1`, the IC50 was under 800 nM.
In the case of `O=C(NCc1ccc2c(c1)OCO2)Nc1nc2c(s1)-c1nc(-c3ccccc3Cl)ncc1CC2`, the IC50 is reported as under 800 nM.
`CCc1nnc(CCNC(=O)Nc2nc3c(s2)-c2nc(-c4ccccc4Cl)ncc2CC3)o1` gave an IC50 of under 800 nM.
For `O=C(Nc1nc2c(s1)-c1nc(-c3ccccc3Cl)ncc1CC2)N1CCC(CN2CCc3ccccc3C2=O)C1` (stereo unspecified), the IC50 was under 800 nM.
Work on `O=C(Nc1nc2c(s1)-c1nc(-c3ccccc3Cl)ncc1CC2)N1CC[C@H](NS(=O)(=O)N2CCOCC2)C1` yielded an IC50 of under 800 nM.
`O=C(NCc1cccc(N2CCNC2=O)c1)Nc1nc2c(s1)-c1nc(-c3ccccc3Br)ncc1CC2` showed an IC50 of under 800 nM.
Compound `O=C(NCCC(=O)N1CCOCC1)Nc1nc2c(s1)-c1nc(-c3ccccc3Cl)ncc1CC2` has an IC50 of under 800 nM.
In the case of `CNC(=O)Nc1cccc(CNC(=O)Nc2nc3c(s2)-c2nc(-c4ccccc4Cl)ncc2CC3)c1`, the IC50 is reported as under 800 nM.
In the case of `CN1CCN(Cc2cccc(NC(=O)Nc3nc4c(s3)-c3nc(-c5ccccc5Cl)ncc3CC4)c2)CC1`, the IC50 is reported as under 800 nM.
Work on `CC(C)(C)OC(=O)Nc1cccc(CNC(=O)Nc2nc3c(s2)-c2nc(-c4ccccc4Cl)ncc2CC3)c1` yielded an IC50 of under 800 nM.
For `O=C(NCCc1nc(C2CC2)no1)Nc1nc2c(s1)-c1nc(-c3ccccc3Br)ncc1CC2`, the IC50 was under 800 nM.
In the case of `CCCn1cnc(CCNC(=O)Nc2nc3c(s2)-c2nc(-c4ccccc4Br)ncc2CC3)c1`, the IC50 is reported as under 800 nM.
`CC(C)CNC(=O)CCNC(=O)Nc1nc2c(s1)-c1nc(-c3ccccc3Cl)ncc1CC2` showed an IC50 of under 800 nM.
`O=C(Nc1nc2c(s1)-c1nc(-c3ccccc3Cl)ncc1CC2)NC1CCC(N2CCNC2=O)CC1` (stereo unspecified) gave an IC50 of under 800 nM.
`CC(C)CC(=O)N[C@H]1CCN(C(=O)Nc2nc3c(s2)-c2nc(-c4ccccc4Cl)ncc2CC3)C1` showed an IC50 of under 800 nM.
Compound `CC(C)(C)OC(=O)CC1(O)CCN(C(=O)Nc2nc3c(s2)-c2nc(-c4ccccc4Cl)ncc2CC3)CC1` has an IC50 of under 800 nM.
`CCN(CC)C(=O)N[C@H]1CCN(C(=O)Nc2nc3c(s2)-c2nc(-c4ccccc4Cl)ncc2CC3)C1` was tested, and the IC50 was under 800 nM.
With `CN(C)C(=O)Nc1cccc(CNC(=O)Nc2nc3c(s2)-c2nc(-c4ccccc4Cl)ncc2CC3)c1` the IC50 was under 800 nM.
Work on `CCn1cc(CNC(=O)Nc2nc3c(s2)-c2nc(-c4ccccc4Cl)ncc2CC3)cn1` yielded an IC50 of under 800 nM.
`CCc1noc(CCNC(=O)Nc2nc3c(s2)-c2nc(-c4ccccc4Br)ncc2CC3)n1` was tested, and the IC50 was under 800 nM.
For `CCc1cnc(CCNC(=O)Nc2nc3c(s2)-c2nc(-c4ccccc4Br)ncc2CC3)o1`, the IC50 was under 800 nM.
For `O=C(Nc1nc2c(s1)-c1nc(-c3ccccc3Cl)ncc1CC2)N1CCC(N2CCNC2=O)CC1`, the IC50 was under 800 nM.
With `Cc1nn(C)cc1CNC(=O)Nc1nc2c(s1)-c1nc(-c3ccccc3Cl)ncc1CC2` the IC50 was under 800 nM.
In the case of `CC(C)OC(=O)N[C@H]1CCN(C(=O)Nc2nc3c(s2)-c2nc(-c4ccccc4Cl)ncc2CC3)C1`, the IC50 is reported as under 800 nM.
`O=C(NCc1ccccc1N1CCCCC1)Nc1nc2c(s1)-c1nc(-c3ccccc3Cl)ncc1CC2` gave an IC50 of under 800 nM.
For `CC(C)CN(C)C(=O)N[C@H]1CCN(C(=O)Nc2nc3c(s2)-c2nc(-c4ccccc4Cl)ncc2CC3)C1`, the IC50 was under 800 nM.
`CC(C)(C)CNC(=O)Nc1nc2c(s1)-c1nc(-c3ccccc3Cl)ncc1CC2` gave an IC50 of under 800 nM.
With `CCc1cnc(CCNC(=O)Nc2nc3c(s2)-c2nc(-c4ccccc4F)ncc2CC3)o1` the IC50 was under 800 nM.
`CCc1nnc(CCNC(=O)Nc2nc3c(s2)-c2nc(-c4ccccc4F)ncc2CC3)o1` gave an IC50 of under 800 nM.
`CC(C)(C)OC(=O)CCNC(=O)Nc1nc2c(s1)-c1nc(-c3ccccc3Cl)ncc1CC2` was tested, and the IC50 was under 800 nM.
`O=C1Cc2ccccc2CN1CC1CCN(C(=O)Nc2nc3c(s2)-c2nc(-c4ccccc4Cl)ncc2CC3)C1` (stereo unspecified) showed an IC50 of under 800 nM.
